pEC50: −log10 of the molar value. Calls of active or inactive are those of the source. The rule behind the calls is not given here.

This assay relates to DRD oncogenic fibroblast cytotoxicity, fluorescence viability. Briefly: cytotoxicity toward DRD oncogenic fibroblasts, dose response, cell-based, fluorescence viability readout (AID 2633).
The pEC50 is −log10 of the EC50, conventionally taken in molar units. As for `COc1ccc(C(C(=O)NC2CCCCC2)N(C(=O)CCl)c2ccc(C)cc2)cc1` (stereo not drawn), the negative-log EC50 (pEC50) was 6.13.

As for `CC[C@@]1(O)C(=O)OCc2c1cc1n(c2=O)Cc2cc3ccccc3nc2-1`, the pEC50 was 6.34.

In the case of `Cc1onc(C(=O)N2CCN(C(c3ccccc3)c3ccccc3)CC2)c1[N+](=O)[O-]`, the pEC50 is 5.89.

For `COc1ccc(/C=N/NC(=O)c2[nH]c3ccc(Br)cc3c2-c2ccccc2)cc1`, the pEC50 was 6.87.

A word on the EC50: it is the midpoint of the concentration-response curve. For `CC1=CC(=O)C=C(C)C1=NOc1ccccc1[N+](=O)[O-]`, the EC50 is > 6670 nM (inactive).

In the case of `CCOc1ccc(CC(=O)Nc2ccc(NC(=O)c3ccco3)cc2)cc1OCC`, the EC50 was > 6670 nM (inactive).

On to `COc1ccc(N(C(=O)CCl)C(C(=O)NCCc2ccccc2)c2cccs2)cc1` (stereo not drawn), for which the negative logarithm of the EC50 (pEC50) was 6.35.

As for `COc1ccc(-c2nnc(NC(=O)c3ccc(S(=O)(=O)N4CCc5ccccc5C4)cc3)o2)cc1`, the EC50 is > 6670 nM (inactive).

For the molecule `Cc1cccc(Nc2nc(N)nc(CCl)n2)c1C`, the pEC50 is 6.25.

Regarding `O=C(COc1ccc(Cl)cc1)Nc1ccc(C(=O)NCc2cccnc2)cc1`, the EC50 is > 6670 nM (inactive).

With `COc1ccc(CN(CCC(c2ccccc2)c2ccc(OC(C)C)cc2)C(=O)CCl)cc1OC` (stereo not drawn), the pEC50 was 5.83.

Take `COC(=O)C[C@](O)(CCCC(C)(C)O)C(=O)O[C@@H]1C(OC)=C[C@]23CCCN2CCc2cc4c(cc2[C@H]13)OCO4`: the pEC50 was 8.33.

Regarding `CCc1ccc(/C=C2/SC(=S)N(CCC(=O)NCCCN3CCOCC3)C2=O)cc1`, the pEC50 is 5.27.

In the case of `Cc1cccc(Nc2nc(N)nc(CCl)n2)c1`, the pEC50 was 5.66.

Consider `CCOc1ccc(Nc2nc(N)nc(CCl)n2)cc1`, for which the pEC50 was 6.24.

Turning to `CC[C@@]1(O)C(=O)OCc2c1cc1n(c2=O)Cc2cc3c(NC(=O)CN)cccc3nc2-1`, the pEC50 is 5.34.

In the case of `CC(Oc1ccc(Cl)cc1Cl)c1nc(-c2ccc(NC(=O)c3cccnc3)cc2)no1` (stereo not drawn), the EC50 was > 6670 nM (inactive).

`C=CCOc1ccccc1CN(C(=O)CCl)c1ccc2c(c1)OCO2`: the pEC50 was 5.61.

Take `O=C(NCc1cccnc1)c1ccc(NC(=O)c2ccc([N+](=O)[O-])cc2)cc1`: the EC50 was > 6670 nM (inactive).

With `CC[C@@]1(O)C(=O)OCc2c1cc1n(c2=O)Cc2cc3c(CN(C)C)c(O)ccc3nc2-1`, the pEC50 was 6.09.

As for `COc1ccc(Cc2nc(-c3ccc(NC(=O)c4cccnc4)cc3)no2)cc1`, the EC50 is > 6670 nM (inactive).

As to `COc1ccc(OC)c(Nc2nc(N)nc(CCl)n2)c1`, the pEC50 is 5.82.

Turning to `CC[C@H]1CN2CCc3cc(OC)c(OC)cc3[C@@H]2C[C@@H]1C[C@H]1NCCc2cc(OC)c(OC)cc21`, the pEC50 is 8.04.

With `COc1ccc(N(C(=O)CCl)C(C(=O)NCCc2ccccc2)c2cccs2)cc1Cl` (stereo not drawn), the pEC50 was 7.60.

Consider `C=C1C(=O)O[C@@H]2C[C@@H](C)[C@@H]3C=CC(=O)[C@@]3(C)[C@@H](OC(=O)CC(=O)O[C@H]3[C@@H]4C(=C)C(=O)O[C@@H]4C[C@@H](C)[C@@H]4C=CC(=O)[C@]43C)[C@H]12`, for which the pEC50 is 7.49.

Consider `Cc1ccc(C2CC(c3cccs3)=NN2C(=O)CCl)cc1` (stereo not drawn), for which the negative logarithm of the EC50 (pEC50) was 5.85.

For the molecule `Cc1cccnc1Nc1nc(-c2ccccn2)cs1`, the pEC50 is 6.37.

`CCc1ccc(/C=C2/SC(=S)N(CCC(=O)Nc3cccnc3)C2=O)cc1`: the EC50 is > 6670 nM (inactive).

For `O=C(CCl)N=c1sccn1Cc1ccccc1Cl`, the pEC50 is 6.90.

In the case of `CCCCCCCN(C(=O)CCl)c1cccc(C)c1`, the pEC50 was 5.96.

For `Cc1ccc(Nc2nc(N)nc(CCl)n2)c(C)c1`, the pEC50 was 6.30.

Take `COc1ccc(C[C@H]2NC[C@H](O)[C@H]2OC(C)=O)cc1`: the pEC50 was 7.35.

As for `CC[C@@]1(O)C(=O)OCc2c1cc1n(c2=O)Cc2cc3c(N)cccc3nc2-1`, the pEC50 is 6.89.

For `CC(C)c1onc(C(=O)N2CCN(C(c3ccccc3)c3ccccc3)CC2)c1[N+](=O)[O-]`, the pEC50 is 6.21.

For `CC(C)C(=O)Nc1ccc(C(=O)NCc2cccnc2)cc1`, the EC50 is > 6670 nM (inactive).

In the case of `CCc1ccc(/C=C2\SC(=S)N(CCC(=O)NCCCN3CCOCC3)C2=O)cc1`, the pEC50 is 5.33.

On to `COc1cccc(N(C(=O)CCl)C(C(=O)NCCc2ccccc2)c2cccs2)c1` (stereo not drawn), for which the pEC50 is 6.55.

Turning to `COc1ccc(C(C(=O)NC2CCCCC2)N(C(=O)CCl)c2cccc(Cl)c2)cc1` (stereo not drawn), the pEC50 was 7.31.

On to `Oc1ccccc1N=Nc1nc(-c2ccccc2)c(-c2ccccc2)[nH]1`, for which the pEC50 is 6.42.

Regarding `CN1CCN(C(=O)CCCN2C(=O)/C(=C/c3cccc(Br)c3)SC2=S)CC1`, the EC50 is > 6670 nM (inactive).

For `COc1ccc(S(=O)(=O)N2CCOCC2)cc1NC(=O)CCNC(=O)c1ccc(Br)cc1`, the EC50 is > 6670 nM (inactive).

For `Cc1ccc(/C=C2\SC(=S)N(CCCC(=O)N3CCOCC3)C2=O)cc1`, the EC50 was > 6670 nM (inactive).

On to `Cc1ccc(C(=O)Sc2cccccc2=O)cc1`, for which the pEC50 is 7.26.

As to `Cc1ccccc1Nc1nc(N)nc(CCl)n1`, the pEC50 was 5.70.

`O=C1SC(Cc2ccccc2)C(=O)N1c1ccccc1` (stereo not drawn): the EC50 was > 6670 nM (inactive).

On to `C/C(=N\Nc1ncc(Cl)cc1Cl)c1ccccn1`, for which the pEC50 was 7.71.

Regarding `O=C(N/N=C/c1cccnc1)c1ccc(NC(=O)C(c2ccccc2)c2ccccc2)cc1`, the EC50 was > 6670 nM (inactive).

For `Nc1nc(CCl)nc(Nc2cccc3ccccc23)n1`, the pEC50 is 6.18.

Turning to `O=C(Cc1ccc([N+](=O)[O-])cc1)N/N=C/c1ccc([N+](=O)[O-])o1`, the EC50 is > 6670 nM (inactive).

On to `Cc1cccc(OCC(=O)Nc2ccc(C(=O)NCc3cccnc3)cc2)c1`, for which the EC50 was > 6670 nM (inactive).

Regarding `Nc1nc(CCl)nc(Nc2ccc3ccccc3c2)n1`, the pEC50 was 6.74.

For the molecule `CC(=O)Nc1ccc(NC(=O)CN(c2cccc([N+](=O)[O-])c2)S(C)(=O)=O)cc1`, the EC50 is > 6670 nM (inactive).

`Cc1ccc(N(C(=O)CCl)C(C(=O)NC2CCCCC2)c2cccnc2)cc1C` (stereo not drawn): the pEC50 was 7.12.

Take `O=S(=O)(c1ccc2c(c1)C(=NO)c1cc(S(=O)(=O)N3CCCCC3)ccc1-2)N1CCCCC1`: the negative-log EC50 (pEC50) was 5.67.

With `COC(=O)[C@@H]1Cc2c([nH]c3ccccc23)C(C)(C)N1C(=O)CCl`, the pEC50 is 6.00.

Regarding `O=C(CCCCCN1C(=O)c2cccc3cccc(c23)C1=O)NCc1cccnc1`, the EC50 was > 6670 nM (inactive).

`O=C(NCc1cccnc1)c1ccc(NC(=O)c2cccc([N+](=O)[O-])c2)cc1`: the EC50 was > 6670 nM (inactive).

`CCN1/C(=C\C=C\C2=[N+](CC)c3ccccc3C2(C)C)C(C)(C)c2ccccc21`: the pEC50 was 6.60.

Source of the values: PubChem BioAssay AID2633 (Broad Institute, 2010).
